# Data from patent US8293774B2, “Optically active (R)-aryloxypropionic acid amides and herbicidal composition comprising same” (Kyung Nong Corporation, priority 2007, dated 2012).
# Legend:
# Assay in all cases: Weed control test, foliage treatment (Test Example 1, Table 7)
# [1] = tested on: ARTHIS (Arthraxon hispidus (Thunb.) Makino, creek grass); type: in vivo; conditions: Arthraxon hispidus, foliar, read-out: Plant damage (herbicidal activity), visually evaluated, ARTHIS; for pest or weed control at 25 g/ha: 0.025 kg/ha; for pest or weed control at 100 g/ha: 0.1 kg/ha; for pest or weed control at 200 g/ha: 0.2 kg/ha
# Description: (§1) Seeds of rice, wheat, soy bean, barley, corn, common sorgum, barnyard grass, large crabgrass, creek grass, green foxtail and fall panicum were placed in sandy loam in 600 cm^2 pots and covered with soil. After keeping the pots in a greenhouse at 20 to 30° C. allowing growth of the plants to the 3-leaf stage of the barnyard grass, 2,000 l/ha of an emulsion obtained by diluting with water a mixture of 1 part by weight of a test compound, 5 parts by weight of acetone and 1 part by weight of an emulsifying agent (Tween 80, Junsei) was applied to the surface of the foliage of the plants. The plant damage at 10 days and 20 days after the foliage treatment was visually evaluated from the level of 1 to 100% by comparison with the untreated control: […]
# [2] = tested on: ZEAMX (Zea mays L., corn); type: in vivo; conditions: Zea mays, foliar, read-out: Plant damage (herbicidal activity), visually evaluated, ZEAMX; for plant injury at 25 g/ha: 0.025 kg/ha; for plant injury at 100 g/ha: 0.1 kg/ha; for plant injury at 200 g/ha: 0.2 kg/ha
# Description: as §1
# [3] = tested on: SORBI (Andropogon sorghum, common sorgum); type: in vivo; conditions: Sorghum bicolor, foliar, read-out: Plant damage (herbicidal activity), visually evaluated, SORBI; for pest or weed control at 25 g/ha: 0.025 kg/ha; for pest or weed control at 100 g/ha: 0.1 kg/ha; for pest or weed control at 200 g/ha: 0.2 kg/ha
# Description: as §1
# [4] = tested on: PANDI (Panium dichotomiflorum Michx, fall panicum); type: in vivo; conditions: Panicum dichotomiflorum, foliar, read-out: Plant damage (herbicidal activity), visually evaluated, PANDI; for pest or weed control at 25 g/ha: 0.025 kg/ha; for pest or weed control at 100 g/ha: 0.1 kg/ha; for pest or weed control at 200 g/ha: 0.2 kg/ha
# Description: as §1
# [5] = tested on: SETVIR (Setaria viridis (L.) Beauv, green foxtail); type: in vivo; conditions: Setaria viridis, foliar, read-out: Plant damage (herbicidal activity), visually evaluated, SETVIR; for pest or weed control at 25 g/ha: 0.025 kg/ha; for pest or weed control at 100 g/ha: 0.1 kg/ha; for pest or weed control at 200 g/ha: 0.2 kg/ha
# Description: as §1
# [6] = tested on: DIGSA (Digitaria Sanguinalis (L.) SCOP, large crabgrass); type: in vivo; conditions: Digitaria sanguinalis, foliar, read-out: Plant damage (herbicidal activity), visually evaluated, DIGSA; for pest or weed control at 25 g/ha: 0.025 kg/ha; for pest or weed control at 100 g/ha: 0.1 kg/ha; for pest or weed control at 200 g/ha: 0.2 kg/ha
# Description: as §1
# [7] = tested on: ECHOG (Echinoch crus-galli Beauv. var. caudata Kitagawa, barnyard grass); type: in vivo; conditions: Echinochloa crus-galli, foliar, 3-leaf stage, read-out: Plant damage (herbicidal activity), visually evaluated, ECHOG; for pest or weed control at 25 g/ha: 0.025 kg/ha; for pest or weed control at 100 g/ha: 0.1 kg/ha; for pest or weed control at 200 g/ha: 0.2 kg/ha
# Description: as §1
# [8] = tested on: GLXMA (Glycine max(L.) MERR, soy bean); conditions: in vivo
# Description: as §1
# [9] = tested on: ORYSA (Oryza sativa cv. Dongjin, rice); conditions: in vivo
# Description: as §1
# [10] = tested on: HORVU (Hordeum vulgare L., barley); conditions: in vivo
# Description: as §1
# [11] = tested on: TRZAW (Tritium aestivum L., wheat); conditions: in vivo
# Description: as §1
SMILES,pest or weed control at 25 g/ha [1] [%],pest or weed control at 100 g/ha [1] [%],pest or weed control at 200 g/ha [1] [%],plant injury at 25 g/ha [2] [%],plant injury at 100 g/ha [2] [%],plant injury at 200 g/ha [2] [%],pest or weed control at 25 g/ha [3] [%],pest or weed control at 100 g/ha [3] [%],pest or weed control at 200 g/ha [3] [%],pest or weed control at 25 g/ha [4] [%],pest or weed control at 100 g/ha [4] [%],pest or weed control at 200 g/ha [4] [%],pest or weed control at 25 g/ha [5] [%],pest or weed control at 100 g/ha [5] [%],pest or weed control at 200 g/ha [5] [%],pest or weed control at 25 g/ha [6] [%],pest or weed control at 100 g/ha [6] [%],pest or weed control at 200 g/ha [6] [%],pest or weed control at 25 g/ha [7] [%],pest or weed control at 100 g/ha [7] [%],further results
"Cc1ccc2nc(N(C)C(=O)[C@@H](C)Oc3ccc(Oc4ccc(C#N)cc4F)cc3)sc2c1 [Example 26, (R)-2-[4-(4-cyano-2-fluorophenoxy)phenoxy]propionic acid-N-(6-methyl-2-benzothiazolyl)-N-methyl amide]",0,0,0,10,10,30,10,20,35,0,0,0,0,0,0,0,0,0,0,0,"pest or weed control at 200 g/ha [7]: 0%; Plant damage (herbicidal activity), visually evaluated, GLXMA [8]: 0%; Plant damage (herbicidal activity), visually evaluated, ORYSA [9]: 0%; Plant damage (herbicidal activity), visually evaluated, HORVU [10]: 0%; Plant damage (herbicidal activity), visually evaluated, TRZAW [11]: 0%"
"Cc1cc(NC(=O)[C@@H](C)Oc2ccc(Oc3ccc(C#N)cc3F)cc2)n(C)n1 [Example 29, (R)-2-[4-(4-cyano-2-fluorophenoxy)phenoxy]propionic acid-N-(1,3-dimethyl-5-pyrazolyl)amide]",0,0,10,0,5,30,0,20,50,0,0,10,0,0,20,0,20,90,20,70,"pest or weed control at 200 g/ha [7]: 90%; Plant damage (herbicidal activity), visually evaluated, GLXMA [8]: 0%; Plant damage (herbicidal activity), visually evaluated, ORYSA [9]: 0%; Plant damage (herbicidal activity), visually evaluated, HORVU [10]: 0%; Plant damage (herbicidal activity), visually evaluated, TRZAW [11]: 0%"
"C[C@@H](Oc1ccc(Oc2ccc(C#N)cc2F)cc1)C(=O)Nc1nccs1 [Example 31, (R)-2-[4-(4-cyano-2-fluorophenoxy)phenoxy]propionic acid-N-(2-thiazolyl)amide]",0,70,70,20,90,90,0,20,50,0,20,20,0,70,70,0,20,70,0,50,"pest or weed control at 200 g/ha [7]: 90%; Plant damage (herbicidal activity), visually evaluated, GLXMA [8]: 0%; Plant damage (herbicidal activity), visually evaluated, ORYSA [9]: 0%; Plant damage (herbicidal activity), visually evaluated, HORVU [10]: 0%; Plant damage (herbicidal activity), visually evaluated, TRZAW [11]: 0%"
"C[C@@H](Oc1ccc(Oc2ccc(C#N)cc2F)cc1)C(=O)Nc1cnccn1 [Example 35, (R)-2-[4-(4-cyano-2-fluorophenoxy)phenoxy]propionic acid-N-(2-pyrazinyl)amide]",0,10,30,0,20,30,20,65,80,0,0,30,0,30,50,10,40,60,0,10,"pest or weed control at 200 g/ha [7]: 30%; Plant damage (herbicidal activity), visually evaluated, GLXMA [8]: 0%; Plant damage (herbicidal activity), visually evaluated, ORYSA [9]: 0%; Plant damage (herbicidal activity), visually evaluated, HORVU [10]: 0%; Plant damage (herbicidal activity), visually evaluated, TRZAW [11]: 0%"
"C[C@@H](Oc1ccc(OC(F)=Cc2ccccc2)cc1)C(=O)N(C)c1ccccc1F [Example 37, (R)-2-[4-(1-fluoro-2-phenylvinyloxy)phenoxy]propionic acid-N-(2-fluorophenyl)-N-methyl amide]",0,0,10,0,0,30,0,20,20,0,0,10,0,0,20,0,20,90,20,70,"pest or weed control at 200 g/ha [7]: 90%; Plant damage (herbicidal activity), visually evaluated, GLXMA [8]: 0%; Plant damage (herbicidal activity), visually evaluated, ORYSA [9]: 0%; Plant damage (herbicidal activity), visually evaluated, HORVU [10]: 0%; Plant damage (herbicidal activity), visually evaluated, TRZAW [11]: 0%"
"C[C@@H](Oc1ccc(C(F)=C(c2ccc(F)cc2)C(F)(F)F)cc1)C(=O)Nc1ccccc1F [Example 40, (R)-2-[4-(1,3,3,3-tetrafluoro-2-(4-fluorophenyl)prop-1-enyl)phenoxy]propionic acid-N-(2-fluorophenyl)amide]",0,0,10,90,100,100,0,20,50,0,0,10,0,0,20,70,90,90,20,70,"pest or weed control at 200 g/ha [7]: 90%; Plant damage (herbicidal activity), visually evaluated, GLXMA [8]: 0%; Plant damage (herbicidal activity), visually evaluated, ORYSA [9]: 0%; Plant damage (herbicidal activity), visually evaluated, HORVU [10]: 0%; Plant damage (herbicidal activity), visually evaluated, TRZAW [11]: 0%"
